From patent publication US4257941A, “Polycyclic nitrogen-containing compounds” (BASF Aktiengesellschaft, priority 1976, dated 1981) come the findings set out here.

Where two headings read alike, the source gives them in different places.

In one assay the test system is Arachis hypogaea. As to the kind of experiment: Growth-regulating action, postemergence, greenhouse (Example 35, Table 1). The conditions noted are these: for growth height relative: control 100. It counts as in vivo. An excerpt:
(§1) The vessels used for the experiments were plastic pots having a volume of 1,130 cm^3 (Table A) or paraffined paper cups having a volume of 170 cm^3 (Table B). The pots and cups were filled with a sandy loam. The seeds of the test plants-separated by species-were sown shallow. Preemergence treatment (soil treatment) was effected immediately after sowing and before germination of the seeds. Seeds lying on the surface came into contact with the active ingredients. Postemergence treatment (leaf treatment) took place at an average growth height of the plants (depending on the rate of growth) of from 6 to 10 cm. The substances were suspended, emulsified or dissolved in water as diluent and applied by means of fine nozzles. The vessels were kept in the greenhouse in a temperature range of 12° C. to 25° C., and were regularly sprinkler irrigated for the duration of the experiment. The observation period was 6 to 8 weeks.
(§2) Further experiments were carried out in the greenhouse under the condition described in Example 11. […] As the plants which were examined liked the warmth (Eupghorbia geniculate, Arachis hypogaea, Cynodon dactylon), they were kept at from 20°-30° C. Cynodon dactylon from seed was cut once and the young growth treated postemergence.

The next assay relates to Cynodon dactylon. The description is as above. The conditions noted are these: for growth height relative: control 100. Format: in vivo.
Text: as §1, §2

In the next assay the test system is Euphorbia geniculata. Nature of the assay: Growth-regulating action, preemergence, greenhouse (Example 35, Table 2). Format: in vivo. To be noted: for growth height relative: control 100.
Text: as §1, §2

A further assay has as its system Festuca rubra. Nature of the assay: Growth height of individual grasses (Example 15). The conditions noted are these: for Growth height: 3 weeks after treatment; for growth height relative: control 100. It counts as in vivo. How it is done: (§3) Under the same conditions as in Example 13 the two grasses Festuca rubra and Poa praetensis (both components of the lawn mixture used in Example 13) were grown in a neutral sandy loam. The growth height was measured 3 weeks after treatment with the active ingredients.

The next assay relates to Poa praetensis. As to the kind of experiment: Growth height of individual grasses (Example 15). The conditions noted are these: for Growth height: 3 weeks after treatment; for growth height relative: control 100. On the set-up: key to plant color: ^+: plants a darker green. Format: in vivo. How it is done:
as §3

Another assay concerns sugar beet. Nature of the assay: Yield and sugar content of sugar beet (Example 20). Format: in vivo, sugar beet (KAWpoly variety). To be noted: for Sugar content of lower stems rel. / Sugar content rel. / Yield rel.: control 100. How it is done: Sugar beets of the KAWpoly variety were grown in a neutral sandy loam in large pots. Fertilization with 1.5 g N as ammonium nitrate and 1 g P2 O5 as secondary potassium phosphate took place at the time of sowing. At a plant height of 16 to 18 cm the leaves were treated twice, once with 0.5 kg/ha and once with 1 kg/ha; in each case, 4 pots formed a variation of the experiment.

A further assay relates to Alopecurus myosuroides. As to the kind of experiment: Herbicidal action (Example 25). Format: in vivo. To be noted: Alopecurus myosuroides, read-out: percentage damage; for pest or weed control at 2000 g/ha: 2.0 kg/ha; for pest or weed control at 4000 g/ha: 4.0 kg/ha; for pest or weed control at 8000 g/ha: 8.0 kg/ha. The protocol:
(§4) Paraffined paper cups having a volume of 170 cm^3 were filled with a sandy loam, and the seeds of the test plants sown therein, separated by species. (The species are also listed below.)
(§5) In the first group, treatment was effected immediately after sowing and before germination of the seeds (preemergence treatment=soil treatment). Shallow sown seeds not completely covered with soil came into contact with the active ingredients. In the second group, the plants were treated postemergence (=leaf treatment) at a growth height of from 2 to 8 cm, depending on the rate of growth and shape of the species concerned. The compounds were suspended or emulsified in water and applied with the aid of fine nozzles. The soil and plants were thoroughly sprinkler irrigated for the duration of the experiment. The cups were placed in the greenhouse and kept in the temperature range 12°-25° C. or 18°-35° C., depending on the temperature requirements of the various species. After 2 to 6 weeks the action was assessed visually on a 0 to 100 scale, 0 denoting no damage and 100 denoting plants not germinated or completely destroyed.

For another assay, the system named is Datura stramonium. As to the kind of experiment: Herbicidal action (Example 25). Format: in vivo. To be noted: postemergence. How it is done:
as §4, §5

As for `C[N+](C)(C)CCCl` [[ClCH2CH2N(CH3⊕)3]Cl⊖, reference compound], the Growth height with Arachis hypogaea (0.5 kg/ha) is listed as 16 cm; with Arachis hypogaea (2.0 kg/ha) it was 14 cm; in the assay on Cynodon dactylon (0.5 kg/ha), 9 cm; in the assay with Cynodon dactylon (2.0 kg/ha), 9 cm; in the assay with Euphorbia geniculata (0.25 kg/ha), 10 cm; with Euphorbia geniculata (0.5 kg/ha) it was 10 cm. Besides, the Growth height with Euphorbia geniculata (1.0 kg/ha) turned out to be 9 cm. Besides, the growth height relative with Arachis hypogaea (0.5 kg/ha) was 100; in the assay with Arachis hypogaea (2.0 kg/ha), 87; in the assay with Cynodon dactylon (0.5 kg/ha), 82; with Cynodon dactylon (2.0 kg/ha) it was 82; in the assay with Euphorbia geniculata (0.25 kg/ha), 91; in the assay with Euphorbia geniculata (0.5 kg/ha), 91. This molecule returned a growth height relative in the assay on Euphorbia geniculata (1.0 kg/ha) of 82.

With `Clc1ccc(N2N=NC3C4CC(C5N=NC45)C32)cc1` (stereo not drawn) [drawing 385], the Growth height in the assay on Festuca rubra (0.5 kg/ha) is 27.0 cm; with Festuca rubra (1.0 kg/ha) it was 25.5 cm; in the assay with Festuca rubra (2.0 kg/ha) it was 23.5 cm; in the assay on Poa praetensis (0.5 kg/ha) it was 20.0 cm; in the assay on Poa praetensis (1.0 kg/ha) it was 20.0 cm; with Poa praetensis (2.0 kg/ha), 15.5 cm. In addition, the growth height relative with Festuca rubra (0.5 kg/ha) amounted to 98.2; in the assay with Festuca rubra (1.0 kg/ha), 92.7; in the assay on Festuca rubra (2.0 kg/ha) it was 85.5; in the assay with Poa praetensis (0.5 kg/ha), 88.9; in the assay with Poa praetensis (1.0 kg/ha), 88.9; with Poa praetensis (2.0 kg/ha), 68.9. Also, the plant color entry with Poa praetensis (1.0 kg/ha) and in the assay on Poa praetensis (2.0 kg/ha) was “^+” throughout.

On to `Brc1ccc(N2N=NC3C4CC(C5N=NC45)C32)cc1` (stereo not drawn) [drawing 386], for which the Growth height in the assay with Festuca rubra (0.5 kg/ha) is 29.5 cm; with Festuca rubra (1.0 kg/ha) it was 27.5 cm; in the assay on Festuca rubra (2.0 kg/ha), 25.5 cm; in the assay on Poa praetensis (0.5 kg/ha), 19.0 cm; in the assay with Poa praetensis (1.0 kg/ha), 17.5 cm; in the assay on Poa praetensis (2.0 kg/ha), 14.0 cm. The growth height relative is given as 107.3 in the assay with Festuca rubra (0.5 kg/ha); 100.0 in the assay on Festuca rubra (1.0 kg/ha); 92.7 in the assay with Festuca rubra (2.0 kg/ha); 84.4 with Poa praetensis (0.5 kg/ha); 77.8 in the assay with Poa praetensis (1.0 kg/ha); 62.2 with Poa praetensis (2.0 kg/ha). The plant color entry in the assay with Poa praetensis (1.0 kg/ha) and with Poa praetensis (2.0 kg/ha) was “^+” in each case.

With `Brc1ccc(N2N=NC3C4CC(C5N=NC45)C32)cc1` (stereo not drawn) [drawing 400], in the assay on sugar beet (0.5 kg/ha), the Sugar content turned out to be 51.0 % in dry substance, the “Sugar content of lower stems” value is 22.9 % in dry substance, the Yield turned out to be 13.04 g dry substance/vessel and the “Sugar content of lower stems rel.” value stood at 100.9. Moreover, in the assay with sugar beet (0.5 kg/ha), the Sugar content rel. was 101.4 and the Yield rel. worked out at 107.4. In the assay with sugar beet (1.0 kg/ha), the Sugar content is recorded as 52.2 % in dry substance, the “Sugar content of lower stems” value was 25.8 % in dry substance, the Yield stood at 14.39 g dry substance/vessel and the “Sugar content of lower stems rel.” value stood at 113.6. In the assay on sugar beet (1.0 kg/ha), this molecule registered a Sugar content rel. of 103.8 and a Yield rel. of 118.5.

Turning to `C=CCN(CC=C)C(=O)CCl` [drawing 425], the pest or weed control at 2000 g/ha came to 28% in the assay with Alopecurus myosuroides (post-emergence, postemergence) and 68% in the assay on Alopecurus myosuroides (pre-emergence, preemergence). Further, the pest or weed control at 4000 g/ha in the assay on Alopecurus myosuroides (post-emergence, postemergence) worked out at 38%; in the assay with Alopecurus myosuroides (pre-emergence, preemergence), 85%. Moreover, the pest or weed control at 8000 g/ha was 35% in the assay with Alopecurus myosuroides (post-emergence, postemergence) and 98% in the assay with Alopecurus myosuroides (pre-emergence, preemergence). For the same molecule, the figures for the percentage damage in the assay on Datura stramonium (2.0 kg/ha), with Datura stramonium (4.0 kg/ha) and in the assay on Datura stramonium (8.0 kg/ha) were 10 percentage damage, 20 percentage damage and 60 percentage damage, respectively.
